Experimental findings from ChEMBL document CHEMBL1201862, “PubChem BioAssay data set” (2004) are described below.

Some test systems named below: EKVX; SNB-19; UACC-257; SF-295; HT-29; HOP-92; OVCAR-5; OVCAR-8; COLO 205; HCT-15; NCI-H226; NCI-H460; SK-MEL-28; HCC 2998; OVCAR-4; NCI-H23; SR; Malme-3M.
Common to all, as to assay: growth of human tumour cells (NCI), 48 h

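Exposure lasted 48 hours, with cells grown in 96-well plates and compounds tested at five concentrations. Here, GI50 denotes the concentration required for 50% inhibition of growth.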 The source made the active and inactive calls. No stated cut-off is given here; in the data, active = GI50 up to about 1.1 µM and inactive = higher.

`N#Cc1c(NCCc2ccc(F)cc2)c2ccccc2n2c1nc1ccccc12`: the GI50 is 10.2 µM (inactive) with EKVX; 14 µM (inactive) in the experiment with SNB-19; 40.4 µM (inactive) with UACC-257; 10.7 µM (inactive) in the experiment with SF-295; 14.9 µM (inactive) with HT-29; 3.55 µM (inactive) in the experiment with HOP-92. Besides, the GI50 was 41.6 µM (inactive) in the experiment on OVCAR-5; 5.68 µM (inactive) with OVCAR-8; 71.6 µM (inactive) with COLO 205; 28.4 µM in the experiment on HCT-15; 16.7 µM (inactive) in the experiment on NCI-H226; 16.5 µM (inactive) in the experiment on NCI-H460. Also, the GI50 in the experiment with SK-MEL-28 is 40.6 µM (inactive); in the experiment on HCC 2998, 40.3 µM (inactive); in the experiment on OVCAR-4, 2.45 µM (inactive); in the experiment on NCI-H23, 13.1 µM (inactive); with SR it was > 100 µM (inactive).

Regarding `COC(=O)C1=C(O)CCCC(C2CCCCC(=O)C2C(=O)OC)=C1` (centres undefined), the GI50 in the experiment on EKVX is 67.3 µM (inactive); in the experiment with SNB-19, 42.1 µM (inactive); in the experiment on UACC-257 it was 52.1 µM (inactive); in the experiment on SF-295, 48 µM (inactive); with HT-29 it was > 100 µM (inactive); with HOP-92, 28.5 µM (inactive). Moreover, the GI50 is > 100 µM (inactive) with OVCAR-5; 45.5 µM (inactive) with OVCAR-8; 83.4 µM (inactive) in the experiment on COLO 205; 87.5 µM in the experiment on HCT-15; 27.9 µM (inactive) in the experiment with NCI-H226; 13.9 µM (inactive) in the experiment on NCI-H460. The GI50 is > 100 µM (inactive) with SK-MEL-28; 33.5 µM (inactive) in the experiment on HCC 2998; > 100 µM (inactive) in the experiment on OVCAR-4; 70.3 µM (inactive) with NCI-H23; 24.7 µM (inactive) in the experiment on SR.

`CC1=NN(C(=O)CSc2nc3ccc(I)cc3c(=O)n2Cc2ccccc2)C(=O)C1`: the GI50 in the experiment with EKVX is 23.6 µM (inactive); in the experiment on SNB-19, 33.7 µM (inactive); with UACC-257, 34 µM (inactive); in the experiment with SF-295, 27.3 µM (inactive); with HT-29, 34.3 µM (inactive); with HOP-92 it was 36.1 µM (inactive). Moreover, the GI50 with OVCAR-5 is 65.2 µM (inactive); in the experiment on OVCAR-8 it was 48.8 µM (inactive); in the experiment on COLO 205 it was 33.5 µM (inactive); in the experiment on HCT-15, 21.5 µM; in the experiment with NCI-H226, 43.9 µM (inactive); in the experiment with NCI-H460 it was 31.8 µM (inactive). Also, the GI50 was 57.3 µM (inactive) in the experiment with SK-MEL-28; 39.1 µM (inactive) with HCC 2998; 24.2 µM (inactive) in the experiment with OVCAR-4; 16.1 µM (inactive) in the experiment with NCI-H23; 16.9 µM (inactive) with SR.

Take `O=C(O)c1cccc2c1/C(=N/Nc1ccccc1)CC2`: the GI50 in the experiment on EKVX was > 100 µM (inactive); in the experiment on UACC-257 it was 65.9 µM (inactive); in the experiment on SF-295 it was 17.2 µM (inactive); in the experiment on HT-29, > 100 µM (inactive); in the experiment on HOP-92, > 100 µM (inactive); with OVCAR-5, > 100 µM (inactive). Also, the GI50 in the experiment with OVCAR-8 was > 100 µM (inactive); with HCT-15, > 100 µM; in the experiment on NCI-H226, 19.9 µM (inactive); in the experiment with NCI-H460 it was 32.1 µM (inactive); in the experiment on SK-MEL-28, > 100 µM (inactive); in the experiment on HCC 2998 it was > 100 µM (inactive). Moreover, the GI50 with OVCAR-4, in the experiment with NCI-H23 and in the experiment on SR was > 100 µM (inactive) each time.

For `NCCCN(CCCN(C(=O)Nc1ccccc1)c1ccccc1)C(=O)Nc1ccccc1`, the GI50 in the experiment with EKVX is 58.7 µM (inactive); in the experiment with SNB-19, 52.4 µM (inactive); in the experiment on UACC-257, 22 µM (inactive); in the experiment on SF-295, 23.2 µM (inactive); with HT-29, 29.8 µM (inactive); in the experiment with HOP-92, 27.2 µM (inactive). Further, the GI50 is 43.2 µM (inactive) with OVCAR-5; 49.3 µM (inactive) with OVCAR-8; 20 µM (inactive) in the experiment on Malme-3M; 36.8 µM (inactive) in the experiment with COLO 205; 28.9 µM in the experiment on HCT-15; 44 µM (inactive) with NCI-H226. The GI50 in the experiment with NCI-H460 was 31 µM (inactive); in the experiment with SK-MEL-28, 16.7 µM (inactive); with HCC 2998, 25.6 µM (inactive); in the experiment on NCI-H23, 27.2 µM (inactive); in the experiment with SR, 45 µM (inactive).

`O=C1NN=C2C=C(c3ccc(Cl)cc3)CC(c3cccc(Br)c3)C12` (centres undefined): the GI50 is 47.5 µM (inactive) in the experiment with EKVX; 21.2 µM (inactive) in the experiment with SNB-19; 22.4 µM (inactive) with UACC-257; 91.4 µM (inactive) with SF-295; > 100 µM (inactive) in the experiment on HT-29; 2.74 µM (inactive) in the experiment on HOP-92. Moreover, the GI50 is > 100 µM (inactive) in the experiment with OVCAR-5; > 100 µM (inactive) in the experiment with OVCAR-8; > 100 µM (inactive) with Malme-3M; > 100 µM (inactive) in the experiment on COLO 205; 19.3 µM in the experiment on HCT-15; 73.6 µM (inactive) in the experiment with NCI-H226. Besides, the GI50 was 40 µM (inactive) with NCI-H460; 38.7 µM (inactive) with HCC 2998; > 100 µM (inactive) with OVCAR-4; 87.3 µM (inactive) with NCI-H23; 38.3 µM (inactive) in the experiment with SR.

For `CC1=NN(c2cccc(Cl)c2)C2(SCC(=O)N2c2nc3ccccc3s2)C1=CC=Cc1ccccc1` (centres undefined), the GI50 in the experiment with EKVX was 54.2 µM (inactive); in the experiment with UACC-257, 36.9 µM (inactive); with SF-295, 35.2 µM (inactive); in the experiment on HT-29, 30.1 µM (inactive); in the experiment with HOP-92, 17.7 µM (inactive); in the experiment with OVCAR-5 it was 51.6 µM (inactive). Further, the GI50 with OVCAR-8 was 35.6 µM (inactive); with HCT-15, 29.2 µM; in the experiment with NCI-H226, 53 µM (inactive); with NCI-H460 it was 30.5 µM (inactive); in the experiment on SK-MEL-28, 34.4 µM (inactive); in the experiment with HCC 2998, 32.3 µM (inactive). In addition, the GI50 with OVCAR-4 was 37.8 µM (inactive); in the experiment with NCI-H23, 27 µM (inactive); in the experiment with SR it was 16.4 µM (inactive).

For `CCCCCCCC(CC(=O)NC(CO)C(=O)NC(CO)CC(C)C)OC(=O)CC(CCCCCCC)OC(=O)CC(CCCCCCC)OC1OC(C)C(O)C(OC2OC(C)C(OC(C)=O)C(O)C2O)C1O` (centres undefined), the GI50 in the experiment with EKVX is 14.9 µM (inactive); in the experiment on SNB-19 it was 5.27 µM (inactive); in the experiment on UACC-257, 2.22 µM (inactive); with SF-295, 12 µM (inactive); with HT-29, 3.41 µM (inactive); in the experiment on HOP-92 it was 8.91 µM (inactive). The GI50 in the experiment with OVCAR-5 was 10.1 µM (inactive); with OVCAR-8, 9.27 µM (inactive); in the experiment on Malme-3M it was 10.6 µM (inactive); in the experiment on COLO 205, 2.52 µM (inactive); with NCI-H226, 16.6 µM (inactive); in the experiment with NCI-H460 it was 3.97 µM (inactive). Also, the GI50 was 6.64 µM (inactive) with SK-MEL-28; 5.05 µM (inactive) with HCC 2998; 5.01 µM (inactive) in the experiment with OVCAR-4; 9.53 µM (inactive) in the experiment with NCI-H23; 2.55 µM (inactive) in the experiment on SR.

As for `COc1cccc(C2c3cc4c(cc3OC(NNS(=O)(=O)c3ccc(C)cc3)C2C)OCO4)c1O` (centres undefined), the GI50 in the experiment with EKVX is 20.2 µM (inactive); in the experiment on SNB-19 it was 28.3 µM (inactive); with UACC-257, 19.7 µM (inactive); in the experiment with SF-295 it was 20.8 µM (inactive); in the experiment on HT-29, 17.9 µM (inactive); with HOP-92, 33.8 µM (inactive). Besides, the GI50 in the experiment on OVCAR-5 is 52.4 µM (inactive); in the experiment on OVCAR-8, 1.69 µM (inactive); in the experiment on Malme-3M, 23.8 µM (inactive); in the experiment on COLO 205, 17.8 µM (inactive); in the experiment with HCT-15, 23.5 µM; with NCI-H226 it was 27.9 µM (inactive). For the same molecule, the GI50 in the experiment on NCI-H460 was 21.8 µM (inactive); in the experiment with SK-MEL-28 it was 25.5 µM (inactive); with HCC 2998 it was 31.1 µM (inactive); in the experiment on NCI-H23, 29.2 µM (inactive); in the experiment with SR, 6.79 µM (inactive).
